Measurements published in patent US7572939B2, “Type of soluble pentacene precursor” (Academia Sinica, priority 2006, dated 2009).
Like-named read-outs stand apart in the source and are kept apart here.

Legend:
Assay type in all cases: physicochemical
[1] = Solubility in organic solvents
Procedure: Compound (3) is quite soluble in dichloromethane benzene, toluene, acetone, and tetrahydrofuran (all in the range of ˜2.0 mM i.e. about 0.7 mg/mL solvent) but is not soluble in methanol, ethanol, or acetonitrile. Compound (3) can be applied to a surface of an article by spin coating, spray coating, screen printing or ink-jet printing to form a film. The film can be dried in any of the conventional ways including air drying or with mild heating, i.e. below about 120° C. Subsequent to drying, a chemical reaction is initiated preferably by the application of heat resulting, inter alia, in the driving off of volatile components including CO.

[2] = Thermal stability by TGA (thermal gravimetric analysis) and DSC
Procedure: Thermal initiated carbonyl extrusion can be depicted by both TGA (thermal gravimetric analysis) and DSC (differential scanning calorimetry) studies. […] The decarbonylation appears at 150° C. to yield pentacene, which decomposes at about 360° C. as measured by 5% weight loss. During the extrusion, Compound (3) loses about 9% weight corresponding to the weight ratio of CO in the molecule. The pentacene thus produced is stable up to temperatures of about 350° C. Above about 350° C., Compound (3) starts to experience thermal decomposition.
General: ^1H^13C NMR spectra were obtained on a Bruker AMX-400 spectrometer. Infrared spectra were recorded on a Perkin-Elmer 682 infrared spectrophotometer. Ultraviolet-visible absorption Spectra were recorded on a HP 8453 spectrophotometer. Differential scanning calorimetry was done on a Perkin-Elmer model DSC7 instrument. Thermal gravimetric analysis was performed by a Perkin-Elmer TGA7 analyzer.

[3] = Stability at ambient conditions

Row | Compound | solubility ([1]; in methanol, ethanol or acetonitrile) | solubility ([1]; organic solvent or mixture, in dichloromethane, benzene, toluene, acetone and tetrahydrofuran (all in this range), read-out: solubility) [µM] | solubility ([1]; organic solvent or mixture, in dichloromethane, benzene, toluene, acetone and tetrahydrofuran, per mL solvent, read-out: solubility) [µg/mL] | temperature above which thermal decomposition starts ([2]; TGA) | fragmentation (decarbonylation) temperature ([2]; TGA/DSC, 10° C./min heating rate, CO extrusion to yield pentacene) [°C] | weight loss during CO extrusion ([2]; TGA, corresponds to weight ratio of CO in the molecule) | stability [3] | decomposition temperature ([2]; TGA, as measured by 5% weight loss) | temperature up to which stable ([2]; TGA, pentacene produced from the precursor)
1 | O=C1C2c3cc4ccccc4cc3C1c1cc3ccccc3cc12 [Compound (3), 6,13-dihydro-6,13-methanopentacene-15-one] | not soluble | ~2000 | ~700 | Above 350 °C | 150 | about 9% | stable |  | 
2 | c1ccc2cc3cc4cc5ccccc5cc4cc3cc2c1 [pentacene] |  |  |  |  |  |  |  | about 360 °C | about 350 °C
